# Test results reported in patent publication US10314777B2, “Delivery of hydrophobic bioactive agents” (priority 2010, dated 2019).
# Assay: Solubility of the retinoate in the carrier GRANSIL GTS
# Type: physicochemical
# Text: In some embodiments, a bioactive agent is a vitamin A derivative such as a retinoid. As an example, some embodiments include hydroxyanasatil retinoate, a form of all-trans retinoate sold by Concert, LLC, Memphis, Tenn., optionally in an amount of 0.1 percent by weight. This material is insoluble at this concentration in the carrier sold under the tradename GRANSIL GTS, which is a mixture of ethyl trisiloxane and polysilicone-11. […] Upon exposure to the environment for application to the skin, the carrier volatilizes allowing the crystalline retinoate to resolubilize in the solvent for increased penetration of the skin.
smiles,measurement,setting,value
COc1ccc(C(=O)COC(=O)\C=C(C)/C=C/C=C(C)/C=C/C2=C(C)CCCC2(C)C)cc1 [hydroxyanasatil retinoate],solubility in carrier GRANSIL GTS,0.1 percent by weight in ethyl trisiloxane and polysilicone-11,insoluble
same,state in carrier GRANSIL GTS with non-volatile solvent,"0.1 percent by weight, dimethyl isosorbide added at 0.8%",mixed state of solubilized material and crystalline material
